Data as given in patent US8541462B2, “Tetrahydrocarbazole derivatives as ligands of G-protein coupled receptors” (AEterna Zentaris GmbH, priority 2007, dated 2013).

Biological target: T1, LHRH receptor (endogenous GnRH receptor of alpha T3-1 cell line) (Mus musculus, UniProt Q01776)
T1 construct: alpha T3-1 cell line with endogenous GnRH receptor expression; endogenous in cells; host or cells: alpha T3-1 cells (intact cell suspension)
T1 sequence (Q01776 1-327): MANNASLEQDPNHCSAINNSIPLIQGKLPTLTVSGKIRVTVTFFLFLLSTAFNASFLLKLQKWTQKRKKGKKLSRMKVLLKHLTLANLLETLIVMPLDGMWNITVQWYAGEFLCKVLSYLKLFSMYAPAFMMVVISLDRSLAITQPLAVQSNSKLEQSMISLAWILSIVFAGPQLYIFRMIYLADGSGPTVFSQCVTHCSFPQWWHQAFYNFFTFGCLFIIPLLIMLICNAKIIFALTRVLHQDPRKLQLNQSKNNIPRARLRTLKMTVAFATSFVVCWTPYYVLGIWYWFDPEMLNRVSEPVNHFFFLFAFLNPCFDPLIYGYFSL
Experiment: LHRH-receptor binding assay (displacement of [125I] cetrorelix on alpha T3-1 cells)
Details: WO 2006/005484-substance 75 = 100%
Experimental: For LHRH receptor binding studies, an assay system using alpha T3-1 cell line with endogenous GnRH receptor expression was employed (Windle et al., Mol. Endocrinol. 1990, 4(4): 597-603).
Iodinated cetrorelix was used as a tracer with about 80% of peptide capable of specific receptor association.
For displacement binding assays, the cells were incubated with approximately 200 pM [^125l] cetrorelix and different concentrations of unlabeled test compounds as competitor. The cell suspension in binding medium was layered on top of silicon/paraffin oil, incubated for 60 min at 37° C. and separated by centrifugation. The tips of the tubes containing the cell pellet were cut off, subsequently cell pellet and supernatant were analyzed by gamma-radiation analysis.
The amount of unspecific binding was determined by including unlabeled cetrorelix at 1 μM final concentration and was typically ≦10% of total binding. IC50 values were calculated by using the GraphPad Prism analysis program (GraphPad Software Inc.).

Normalized Affinity [%]	SMILES
247	CCC(C)[C@H](NC(=O)Cc1ccccc1F)C(=O)N[C@]1(C(=O)N[C@H](C(=S)NCc2ccncc2)C(C)CC)CCc2[nH]c3c(C(F)(F)F)cccc3c2C1 (stereo partly drawn) [Compound 60, (R)-3-{(S)-2-[2-(2-Fluoro-phenyl)-acetylamino]-3-methyl-pentanoylamino}-8-trifluoromethyl-2,3,4,9-tetrahydro-1H-carbazole-3-carboxylic acid {(S)-2-methyl-1-[(pyridin-4-ylmethyl)-thiocarbamoyl]-butyl}-amide]
529	CCC(C)[C@H](NC(=O)Cc1ccccc1F)C(=O)N[C@]1(C(=O)N[C@H](C(=O)Nc2ccc(OC)c(O)c2)C(C)CC)CCc2[nH]c3c(C(F)(F)F)cccc3c2C1 (stereo partly drawn) [Compound 69, (R)-3-{(S)-2-[2-(2-Fluoro-phenyl)-acetylamino]-3-methyl-pentanoylamino}-8-trifluoromethyl-2,3,4,9-tetrahydro-1H-carbazole-3-carboxylic acid [(S)-1-(3-hydroxy-4-methoxy-phenylcarbamoyl)-2-methyl-butyl]-amide]
411	CCC(C)[C@H](NC(=O)Cc1ccccc1F)C(=O)N[C@]1(C(=O)N[C@H](C(=O)Nc2ccc(OC)cc2O)C(C)CC)CCc2[nH]c3c(C(F)(F)F)cccc3c2C1 (stereo partly drawn) [Compound 71, (R)-3-{(S)-2-[2-(2-Fluoro-phenyl)-acetylamino]-3-methyl-pentanoylamino}-8-trifluoromethyl-2,3,4,9-tetrahydro-1H-carbazole-3-carboxylic acid [(S)-1-(2-hydroxy-4-methoxy-phenylcarbarnoyl)-2-methyl-butyl]-amide]
247	CCC(C)[C@H](NC(=O)Cc1ccccc1F)C(=O)N[C@]1(C(=O)N[C@H](C(=S)NCCCn2ccnc2)C(C)CC)CCc2[nH]c3c(C(F)(F)F)cccc3c2C1 (stereo partly drawn) [Compound 74, (R)-3-{(S)-2-[2-(2-Fluoro-phenyl)-acetylamino]-3-methyl-pentanoylamino}-8-trifluoromethyl-2,3,4,9-tetrahydro-1H-carbazole-3-carboxylic acid [(S)-1-(3-imidazol-1-yl-propylthiocarbamoyl)-2-methyl-butyl]-amide]
285	CCC(C)[C@H](NC(=O)Cc1ccccc1F)C(=O)N[C@]1(C(=O)N[C@H](C(=S)NCc2nnc(C)o2)C(C)CC)CCc2[nH]c3c(C(F)(F)F)cccc3c2C1 (stereo partly drawn) [compound 118, (R)-3-{(S)-2-[2-(2-Fluoro-phenyl)-acetylamino]-3-methyl-pentanoylamino}-8-trifluoromethyl-2,3,4,9-tetrahydro-1H-carbazole-3-carboxylic acid {(S)-2-methyl-1-[(5-methyl-[1,3,4]oxadiazol-2-ylmethyl)-thiocarbamoyl]-butyl}-amide]
370	CCC(C)[C@H](NC(=O)Cc1ccccc1F)C(=O)N[C@]1(C(=O)N[C@H](C(=O)Nc2nnn(C(C)(C)C)n2)C(C)CC)CCc2[nH]c3c(C(F)(F)F)cccc3c2C1 (stereo partly drawn) [compound 178, (R)-3-{(S)-2-[2-(2-Fluoro-phenyl)-acetylamino]-3-methyl-pentanoylamino}-8-trifluoromethyl-2,3,4,9-tetrahydro-1H-carbazole-3-carboxylic acid [(S)-1-(2-tert-butyl-2H-tetrazol-5-ylcarbamoyl)-2-methyl-butyl]-amide]

System: not listed separately
Experiment: Metabolic stability testing in liver microsomes
Type: in vitro ADME
Details: mixed-gender human liver microsomes, 1 mg microsomal protein/mL, initial concentration 10 μM, 60 minutes at 37° C.; WO 2006/005484-substance 7 = 100%
Experimental: Subcellular fractions of different tissues can be prepared easily by ultracentrifugation. Most commonly these are prepared from the liver of animals and human donors to gain information about the potential hepatic clearance of compounds (first-pass elimination of drugs). Human or animal (e.g. dog, mouse, rat) subcellular fraction like liver microsomes, or possibly the fraction called S9 have therefore become a very commonly and widely used as an in vitro model to investigate mainly cytochrome P450 dependent phase I (but also phase II) metabolism that takes place in the liver.
In order to reflect the standard proportion of the enzymes in human and animal livers, liver microsomes are usually pooled from a number of […] of the same sex (or mixed-gender). By supplementing the liver microsomes with relevant cofactors and other components it is possible to investigate and distinguish between CYPs, flavin-containing monooxygenase (FMO) and UDP-glucuronosyltransferase (UGT) activities.
Selected compounds of the invention were tested for their stability in mixed-gender human liver microsomes and compared to pertinent prior art compounds.
Under the test conditions applied (1 mg microsomal protein/mL, initial concentration of 10 μM, and incubation for 60 minutes at 37° C.) the following normalized results were obtained.

Normalized microsomal stability [%]	SMILES
1041	CCC(C)[C@H](NC(=O)Cc1ccccc1F)C(=O)N[C@]1(C(=O)N[C@H](C(=O)Nc2ccc(OC)c(O)c2)C(C)CC)CCc2[nH]c3c(C(F)(F)F)cccc3c2C1 (stereo partly drawn) [Compound 69, (R)-3-{(S)-2-[2-(2-Fluoro-phenyl)-acetylamino]-3-methyl-pentanoylamino}-8-trifluoromethyl-2,3,4,9-tetrahydro-1H-carbazole-3-carboxylic acid [(S)-1-(3-hydroxy-4-methoxy-phenylcarbamoyl)-2-methyl-butyl]-amide]
1889	CCC(C)[C@H](NC(=O)Cc1ccccc1F)C(=O)N[C@]1(C(=O)N[C@H](C(=S)NCCCn2ccnc2)C(C)CC)CCc2[nH]c3c(C(F)(F)F)cccc3c2C1 (stereo partly drawn) [Compound 74, (R)-3-{(S)-2-[2-(2-Fluoro-phenyl)-acetylamino]-3-methyl-pentanoylamino}-8-trifluoromethyl-2,3,4,9-tetrahydro-1H-carbazole-3-carboxylic acid [(S)-1-(3-imidazol-1-yl-propylthiocarbamoyl)-2-methyl-butyl]-amide]
1322	CCC(C)[C@H](NC(=O)Cc1ccccc1F)C(=O)N[C@]1(C(=O)N[C@H](C(=O)NNC(=O)c2ccccc2)C(C)CC)CCc2[nH]c3c(C(F)(F)F)cccc3c2C1 (stereo partly drawn) [compound 242, (R)-3-{(S)-2-[2-(2-Fluoro-phenyl)-acetylamino]-3-methyl-pentanoylamino}-8-trifluoromethyl-2,3,4,9-tetrahydro-1H-carbazole-3-carboxylic acid [(S)-1-(N′-benzoyl-hydrazinocarbonyl)-2-methyl-butyl]-amide]
1096	CCC(C)[C@H](NC(=O)NCc1ccccc1F)C(=O)N[C@]1(C(=O)N[C@H](C(=O)NNc2ccccc2)C(C)CC)CCc2[nH]c3c(C(F)(F)F)cccc3c2C1 (stereo partly drawn) [compound 244, (R)-3-{(S)-2-[3-(2-Fluoro-benzyl)-ureido]-3-methyl-pentanoylamino}-8-trifluoromethyl-2,3,4,9-tetrahydro-1H-carbazole-3-carboxylic acid [(S)-2-methyl-1-(N′-phenyl-hydrazinocarbonyl)-butyl]-amide]
1580	CC[C@H](C)[C@H](NC(=O)Cc1ccccc1F)C(=O)N[C@]1(C(=O)N[C@H](c2nc(-c3ccccc3)cs2)[C@@H](C)CC)CCc2[nH]c3c(C(F)(F)F)cccc3c2C1 [compound 249, (R)-3-{(2S,3S)-2-[2-(2-Fluoro-phenyl)-acetylamino]-3-methyl-pentanoylamino}-8-trifluoromethyl-2,3,4,9-tetrahydro-1H-carbazole-3-carboxylic acid [(1S,2S)-2-methyl-1-(4-phenyl-thiazol-2-yl)-butyl]-amide]
1491	CC[C@H](C)[C@H](NC(=O)Cc1ccccc1F)C(=O)N[C@]1(C(=O)N[C@H](c2nc(-c3ccc(OC)cc3)cs2)[C@@H](C)CC)CCc2[nH]c3c(C(F)(F)F)cccc3c2C1 [compound 250, (R)-3-{(2S,3S)-2-[2-(2-Fluoro-phenyl)-acetylamino]-3-methyl-pentanoylamino}-8-trifluoromethyl-2,3,4,9-tetrahydro-1H-carbazole-3-carboxylic acid {(1S,2S)-1-[4-(4-methoxy-phenyl)-thiazol-2-yl]-2-methyl-butyl}-ami]
1194	CC[C@H](C)[C@H](NC(=O)Cc1ccccc1F)C(=O)N[C@]1(C(=O)N[C@H](c2nc(C(=O)O)cs2)[C@@H](C)CC)CCc2[nH]c3c(C(F)(F)F)cccc3c2C1 [compound 256, 2-{(1S,2S)-1-[((R)-3-{(2S,3S)-2-[2-(2-Fluoro-phenyl)-acetylamino]-3-methyl-pentanoylamino}-8-trifluoromethyl-2,3,4,9-tetrahydro-1H-carbazole-3-carbonyl)-amino]-2-methyl-butyl}-thiazole-4-carboxylic acid]
1215	CCOC(=O)c1csc([C@@H](NC(=O)[C@@]2(NC(=O)[C@@H](NC(=O)NCc3ccccc3F)[C@@H](C)CC)CCc3[nH]c4c(C(F)(F)F)cccc4c3C2)[C@@H](C)CC)n1 [compound 258, 2-{(1S,2S)-1-[((R)-3-{(2S,3S)-2-[3-(2-Fluoro-benzyl)-ureido]-3-methyl-pentanoylamino}-8-trifluoromethyl-2,3,4,9-tetrahydro-1H-carbazole-3-carbonyl)-amino]-2-methyl-butyl}-thiazole-4-carboxylic acid ethyl ester]
